From patent US11524003B2, “Alpha-amino esters of hydroxypropylthiazolidine carboxamide derivative and salt form, crystal polymorph thereof” (ObsEva S.A., priority 2016, dated 2022)

Assays:
[1] = tested on: Caco-2 cell monolayer; assay: Bidirectional permeability across Caco-2 cell monolayers; format: in vitro ADME, human
Protocol: Compound I was dissolved in HBSS buffer (1% DMSO final concentration) at the concentrations of 1.5, 3 and 6 μM. Each concentration/sampling time was run in duplicate well. The test was performed in a gradient pH: the apical compartment (mucosal) was at pH 6.5, the basolateral compartment (serosal) was at pH 7.4.
Apical to basolateral (A→B, mucosal to serosal) transport: 200 μL of each concentration of compound I was added to the apical compartment and 400 μL of HBSS was added to the basolateral compartment. The plates were incubated at 37° C. An aliquot of the basolateral compartment was sampled after 60 and 120 min (t=60 and t=120). An aliquot of the apical compartment was sampled at the starting time (t=0) and after 120 min. (t=120).
Basolateral to apical (B→A, serosal to mucosal) transport: 400 μL of each concentration of compound I was added to the basolateral compartment and 200 μL of HBSS was added to the apical compartment. The plates were incubated at 37° C. An aliquot of the apical compartment was sampled after 60 and 120 min (t=60 and t=120). An aliquot of the basolateral compartment was sampled at the starting time (t=0) and after 120 min. (t=120). All samples were analyzed by LC/MS monitoring both compound I and the appearance of compound II.
Compound II was dissolved in HBSS buffer (1% DMSO final concentration) at the concentrations of 1.5, 3 and 6 μM. Each concentration/sampling time was run in duplicate well. The test was performed in a gradient pH: the apical compartment (mucosal) was at pH 6.5, the basolateral compartment (serosal) was at pH 7.4.
Apical to basolateral (A→B, mucosal to serosal) transport: 200 μL of each concentration of compound II was added to the apical compartment and 400 μL of HBSS was added to the basolateral compartment. The plates were incubated at 37° C. An aliquot of the basolateral compartment was sampled after 60 and 120 min (t=60 and t=120). An aliquot of the apical compartment was sampled at the starting time (t=0) and after 120 min. (t=120).
Basolateral to apical (B→A, serosal to mucosal) transport: 400 μL of each concentration of compound II was added to the basolateral compartment and 200 μL of HBSS was added to the apical compartment. The plates were incubated at 37° C. An aliquot of the apical compartment was sampled after 60 and 120 min (t=60 and t=120). An aliquot of the basolateral compartment was sampled at the starting time (t=0) and after 120 min. (t=120). All samples were analyzed by LC/MS monitoring compound II.

[2] = tested on: OT-induced myometrial contractility; assay: Oxytocin-induced contractions of human myometrial biopsies (myograph); details: 6, 60, 600, 6000 nM
Protocol: Experiments were performed using a DMT Myograph 800 MS (ADINSTRUMENTS™) in oxygenated Kreb's solution with ADI Powerlab software. Once regular contractions had been established for at least 20 minutes, baseline measurements of spontaneous contraction frequency were recorded. The measurement of spontaneous contraction frequency is represented on the x-axis as “Spon.” A DMSO control or compound II was then added to each myometrial sample at the indicated concentrations and the effects of control or compound II on contractile frequency were measured over the ensuing 10-minute period. This time point is represented on the x-axis as “Compound II.” The effects of compound II on contractile frequency in the presence of OT were subsequently measured by challenging the myometrial tissue samples with increasing concentrations of OT (1 nM, 10 nM, and 100 nM) at sequential 10-minute intervals. […] Once regular contractions had been established for at least 20 minutes, baseline measurements of spontaneous work done per contraction were recorded. The measurement of spontaneous work done per contraction is represented on the x-axis as “Spon.” A DMSO control or compound II was then added to each myometrial sample at the indicated concentrations and the effects of control or compound II on work done per contraction were measured over the ensuing 10-minute period. […]

O=C(N[C@@H](CCO)c1ccc(F)cc1)[C@@H]1SCCN1S(=O)(=O)c1ccc(-c2ccccc2)cc1 [Compound II, 3-([1,1′-biphenyl]-4-ylsulfonyl)-N-[1-(4-fluorophenyl)-3-hydroxypropyl]-1,3-thiazolidine-2-carboxamide]
Efflux [1]: No efflux was detected
Passive passage through the Caco-2 monolayer [1]: good passive passage
Passage apical to basolateral ([1]; A→B): good percentage of passage
Permeability from basolateral to apical compartment ([1]; B→A): low rate of permeability
Effect on OT-induced myometrial contractility [2]: suppressing both PGF2α-induced and OT-induced myometrial contractility in a dose-dependent fashion
